In US7915276B2, “Berberrubine derivatives having antifungal activities” (priority 2006, dated 2011):

Tests used:
[1] = system: Aspergillus flavus ATCC 64025; test: In vitro antifungal activity (MIC), NCCLS method; assay type: cell-based; details: 48 hours
Source text: (§1) Candida albicans ATCC 10231, Candida lusitaniae ATCC 42720, Candida krusei ATCC 6258, Candida tropicalis ATCC 13803, Candida glabrata ATCC 48435, Candida parapsilosis ATCC 34136, Cryptococcus neoformans ATCC 36556, Aspergillus fumigatus ATCC 16424, Aspergillus flavus ATCC 64025, Aspergillus terreus ATCC 46941 and Mucor ramosissimus ATCC 90286 strains for the MIC (minimum inhibitory concentration) measurement were obtained from ATCC (American Type Culture Collection) in the U.S. The Candida albicans A207(clinical isolate) strain was used by isolating it from the patients.
(§2) The determination of MIC was performed according to the NCCLS (National Committee for Clinical Laboratory Standard) method. Each test sample solution was diluted two-fold and inoculated with a fungal suspension to reach a final inoculum size of 5×10^2 to 2.5×10^3 cell/mL. The Cryptococcus neoformans strain was cultured in the RPMI 1640 medium for 72 hours. Other strains were cultured for 48 hours.

[2] = system: Candida albicans ATCC 10231; test: In vitro antifungal activity (MIC), NCCLS method; assay type: cell-based; details: 48 hours
Source text: as §1, §2

[3] = system: Candida krusei ATCC 6258; test: In vitro antifungal activity (MIC), NCCLS method; assay type: cell-based; details: 48 hours
Source text: as §1, §2

[4] = system: Candida albicans A207 (clinical isolate); test: In vitro antifungal activity (MIC), NCCLS method; assay type: cell-based; details: 48 hours
Source text: as §1, §2

[5] = system: Candida glabrata ATCC 48435; test: In vitro antifungal activity (MIC), NCCLS method; assay type: cell-based; details: Candida glabrata ATCC 48435; 48 hours
Source text: as §1, §2

[6] = system: Cryptococcus neoformans ATCC 36556; test: In vitro antifungal activity (MIC), NCCLS method; assay type: cell-based; details: RPMI 1640 medium, 72 hours
Source text: as §1, §2

[7] = system: Mucor ramosissimus ATCC 90286; test: In vitro antifungal activity (MIC), NCCLS method; assay type: cell-based; details: 48 hours
Source text: as §1, §2

[8] = system: Candida parapsilosis ATCC 34136; test: In vitro antifungal activity (MIC), NCCLS method; assay type: cell-based; details: Candida parapsilosis ATCC 34136; 48 hours
Source text: as §1, §2

[9] = system: Aspergillus fumigatus ATCC 16424; test: In vitro antifungal activity (MIC), NCCLS method; assay type: cell-based; details: 48 hours
Source text: as §1, §2

[10] = system: Candida lusitaniae ATCC 42720; test: In vitro antifungal activity (MIC), NCCLS method; assay type: cell-based; details: 48 hours
Source text: as §1, §2

[11] = system: Candida tropicalis ATCC 13803; test: In vitro antifungal activity (MIC), NCCLS method; assay type: cell-based; details: 48 hours
Source text: as §1, §2

[12] = system: Aspergillus terreus ATCC 46941; test: In vitro antifungal activity (MIC), NCCLS method; assay type: cell-based; details: 48 hours
Source text: as §1, §2

[13] = biological target: T1, chitin synthase 1 of Candida albicans chs2 Δ chs 3 Δ (Candida albicans, UniProt P23316); test: In vitro enzyme assay for chitin synthase 1 of Candida albicans (enzyme 1); assay type: biochemical; details: relative to polyoxin D (50% inhibitory activity = value 5)
T1 construct: Crude enzyme was prepared using the Candida albicans chs2 Δ chs 3 Δ mutant; endogenous in cells; host or cells: Candida albicans chs2Δ/chs2Δ chs3Δ/chs3Δ mutant; 130,000 x g membrane pellet
T1 sequence (P23316 whole entry, stated change not applied): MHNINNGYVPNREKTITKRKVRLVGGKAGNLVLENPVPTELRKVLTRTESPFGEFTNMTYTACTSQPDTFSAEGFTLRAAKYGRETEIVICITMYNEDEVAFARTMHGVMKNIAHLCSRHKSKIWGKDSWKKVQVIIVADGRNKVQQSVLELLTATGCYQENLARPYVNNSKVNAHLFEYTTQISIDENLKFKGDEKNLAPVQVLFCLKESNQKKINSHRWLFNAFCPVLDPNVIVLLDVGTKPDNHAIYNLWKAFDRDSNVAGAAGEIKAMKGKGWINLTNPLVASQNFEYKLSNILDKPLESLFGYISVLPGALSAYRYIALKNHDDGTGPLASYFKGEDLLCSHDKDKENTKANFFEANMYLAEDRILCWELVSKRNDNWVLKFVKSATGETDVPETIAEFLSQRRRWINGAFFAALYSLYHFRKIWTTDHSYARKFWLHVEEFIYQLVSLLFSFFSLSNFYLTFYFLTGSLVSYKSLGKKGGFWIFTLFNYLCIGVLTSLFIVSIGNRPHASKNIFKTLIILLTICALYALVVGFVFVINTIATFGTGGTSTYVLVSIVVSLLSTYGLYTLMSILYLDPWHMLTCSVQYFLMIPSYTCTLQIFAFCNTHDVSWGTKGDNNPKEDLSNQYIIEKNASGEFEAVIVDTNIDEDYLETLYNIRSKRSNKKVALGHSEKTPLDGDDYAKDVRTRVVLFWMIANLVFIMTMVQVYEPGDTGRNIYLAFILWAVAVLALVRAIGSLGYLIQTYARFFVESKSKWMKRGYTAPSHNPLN
In short: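 Trypsin-activated crude membrane chitin synthase 1 from C. albicans chs2Δ chs3Δ was incubated 90 min at 30 °C with 1.1 mM UDP-[14C]GlcNAc and 2 mM cobalt acetate in Tris-HCl pH 7.5. Filtered TCA precipitate was counted by scintillation; values are scores 1–8 against polyoxin D (5 = same concentration).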

[14] = biological target: T2, chitin synthase 2 of Saccharomyces cerevisiae ECY38-38A(pAS6) (Saccharomyces cerevisiae, UniProt P14180); test: In vitro enzyme assay for chitin synthase 2 of Saccharomyces cerevisiae (enzyme 2); assay type: biochemical; details: relative to polyoxin D (50% inhibitory activity = value 5)
T2 construct: made in house; host or cells: Saccharomyces cerevisiae ECY38-38A (chs1-23 chs2::LEU2 cal1/csd2) carrying plasmid pAS6, grown in galactose medium; 130,000 x g membrane pellet
T2 sequence (P14180 whole entry): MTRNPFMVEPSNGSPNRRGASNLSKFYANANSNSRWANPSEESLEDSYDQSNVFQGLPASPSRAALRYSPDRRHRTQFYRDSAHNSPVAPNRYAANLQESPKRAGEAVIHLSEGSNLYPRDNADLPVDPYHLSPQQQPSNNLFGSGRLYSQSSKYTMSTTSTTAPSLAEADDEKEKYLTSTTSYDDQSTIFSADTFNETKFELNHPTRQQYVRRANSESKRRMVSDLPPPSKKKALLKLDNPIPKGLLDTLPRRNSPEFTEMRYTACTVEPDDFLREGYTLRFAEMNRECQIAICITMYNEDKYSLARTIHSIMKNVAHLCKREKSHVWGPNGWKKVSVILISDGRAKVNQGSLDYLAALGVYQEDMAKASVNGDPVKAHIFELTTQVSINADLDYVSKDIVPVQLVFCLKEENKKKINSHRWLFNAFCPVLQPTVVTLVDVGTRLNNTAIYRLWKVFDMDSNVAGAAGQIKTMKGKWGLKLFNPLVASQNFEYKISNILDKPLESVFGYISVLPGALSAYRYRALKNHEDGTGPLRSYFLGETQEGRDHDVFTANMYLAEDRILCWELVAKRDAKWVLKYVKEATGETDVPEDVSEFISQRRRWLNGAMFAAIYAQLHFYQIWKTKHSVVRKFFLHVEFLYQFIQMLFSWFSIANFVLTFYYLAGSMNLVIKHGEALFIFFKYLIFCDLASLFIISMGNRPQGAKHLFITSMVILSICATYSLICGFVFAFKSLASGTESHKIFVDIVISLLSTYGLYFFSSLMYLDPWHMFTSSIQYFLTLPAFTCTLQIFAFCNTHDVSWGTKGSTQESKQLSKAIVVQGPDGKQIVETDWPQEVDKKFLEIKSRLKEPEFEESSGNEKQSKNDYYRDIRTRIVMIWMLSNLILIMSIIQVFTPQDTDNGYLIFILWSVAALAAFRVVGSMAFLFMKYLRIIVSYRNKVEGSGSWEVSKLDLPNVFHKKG
In short: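 Values are scores: 5 means 50% inhibition at the same concentration as polyoxin D, lower scores 2- to 16-fold higher concentration, higher scores ½ to ⅛. Radiolabel from 1.1 mM UDP-[14C]-GlcNAc was incorporated into TCA-insoluble chitin over 90 min at 30 °C (pH 7.5 Tris, 2 mM Co2+). The enzyme was a trypsin-activated membrane fraction from CHS2-only S. cerevisiae ECY38-38A(pAS6).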

Substance | MIC (minimum inhibitory concentration) [1] [µg/mL] | MIC (minimum inhibitory concentration) [2] [µg/mL] | MIC (minimum inhibitory concentration) [3] [µg/mL] | MIC (minimum inhibitory concentration) [4] [µg/mL] | MIC (minimum inhibitory concentration) [5] [µg/mL] | MIC (minimum inhibitory concentration) [6] [µg/mL] | MIC (minimum inhibitory concentration) [7] [µg/mL] | MIC (minimum inhibitory concentration) [8] [µg/mL] | MIC (minimum inhibitory concentration) [9] [µg/mL] | MIC (minimum inhibitory concentration) [10] [µg/mL] | MIC (minimum inhibitory concentration) [11] [µg/mL] | MIC (minimum inhibitory concentration) [12] [µg/mL] | Relative activity Enzyme 1 [13] | Relative activity Enzyme 2 [14]
13-(4-Isopropylbenzyl)-9-O-(3-hydroxypropyl)berberrubine iodide [Compound No. 21] | 8 | 0.5 | 1 | 0.5 | 2 | 1 | 4 | 2 | 2 | 2 | 0.5 | 8 | 3 (Compounds having the inhibitory activity at 2-fold, 4-fold, 8-fold and 16-fold higher concentrations than that of polyoxin D were given the values of 4, 3, 2 and 1, respectively) | 6 (compounds having the inhibitory activity at ½, ¼ and ⅛ lower concentrations than that of polyoxin D were given the values of 6, 7 and 8, respectively)
13-(4-Isopropylbenzyl)-9-O-(4-isopropylbenzyl)berberrubine bromide [Compound No. 26] | 8 | 1 | 2 | 1 | 2 | 2 | 8 | 8 | 4 | 4 | 1 | 8 | 2 (Compounds having the inhibitory activity at 2-fold, 4-fold, 8-fold and 16-fold higher concentrations than that of polyoxin D were given the values of 4, 3, 2 and 1, respectively) | 5 (A compound having the same inhibitory activity as that of polyoxin D at the same concentration was given the value 5)
13-(4-Isopropylbenzyl)-9-O-(4-isopropylbenzyl)berberrubine chloride [Compound No. 58] | 8 | 1 | 2 | 1 | 2 | 2 | 8 | 8 | 4 | 4 | 1 | 8 | 2 (Compounds having the inhibitory activity at 2-fold, 4-fold, 8-fold and 16-fold higher concentrations than that of polyoxin D were given the values of 4, 3, 2 and 1, respectively) | 5 (A compound having the same inhibitory activity as that of polyoxin D at the same concentration was given the value 5)
13-(4-Isopropylbenzyl)-9-O-(4-tert-butylbenzyl)berberrubine bromide [Compound No. 25] | 8 | 1 | 4 | 1 | 4 | 2 | 8 | 8 | 4 | 4 | 1 | 8 | 2 (Compounds having the inhibitory activity at 2-fold, 4-fold, 8-fold and 16-fold higher concentrations than that of polyoxin D were given the values of 4, 3, 2 and 1, respectively) | 5 (A compound having the same inhibitory activity as that of polyoxin D at the same concentration was given the value 5)
13-(4-Isopropylbenzyl)-9-O-(4-tert-butylbenzyl)berberrubine chloride [Compound No. 57] | 8 | 1 | 4 | 1 | 4 | 2 | 8 | 8 | 4 | 4 | 1 | 8 | 2 (Compounds having the inhibitory activity at 2-fold, 4-fold, 8-fold and 16-fold higher concentrations than that of polyoxin D were given the values of 4, 3, 2 and 1, respectively) | 5 (A compound having the same inhibitory activity as that of polyoxin D at the same concentration was given the value 5)
13-(4-Isopropylbenzyl)-9-O-(6-chlorohexyl)berberrubine chloride [Compound No. 54] | 8 | 0.5 | 1 | 0.5 | 2 | 1 | 4 | 2 | 2 | 2 | 0.5 | 8 | 2 (Compounds having the inhibitory activity at 2-fold, 4-fold, 8-fold and 16-fold higher concentrations than that of polyoxin D were given the values of 4, 3, 2 and 1, respectively) | 6 (compounds having the inhibitory activity at ½, ¼ and ⅛ lower concentrations than that of polyoxin D were given the values of 6, 7 and 8, respectively)
13-(4-Isopropylbenzyl)-9-O-allylberberrubine chloride [Compound No. 55] | 8 | 1 | 2 | 1 | 8 | 2 | 4 | 4 | 8 | 2 | 1 | 8 | 3 (Compounds having the inhibitory activity at 2-fold, 4-fold, 8-fold and 16-fold higher concentrations than that of polyoxin D were given the values of 4, 3, 2 and 1, respectively) | 6 (compounds having the inhibitory activity at ½, ¼ and ⅛ lower concentrations than that of polyoxin D were given the values of 6, 7 and 8, respectively)
